# US20040077092A1, “Control and calibration material for blood coagulation tests” (priority 2002, published 2004)
# Columns and labels:
# Assay type in all cases: biochemical
# [1] = tested on: control plasma "PreClot I/II"; assay: aPTT (activated partial thromboplastin time), PTT a reagent, ball coagulometer KC10A
# Method: Effect of the Inventive Prolongation Substances when Added to Control Plasmas to Monitor the Determination of aPTT (activated partial thromboplastin time)
# The control plasma “PreClot I/II” from Roche Diagnostics is rehydrated according to the instructions of the manufacturer with aqueous solutions in which 0%, 2.0%, 3.5% and 5.0% N-methyl urea (in each case % by weight) are dissolved. The “PTT a reagent for the automated and manual determination of the activated partial thromboplastin time” from Roche Diagnostics is used to determine the clotting time in seconds in the control solutions obtained in this manner on a ball coagulometer KC10A from the Amelung Company (Germany).
# The experimental protocol is the same as described in example 2a).
# The only amendment was that the following concentrations of guanidine hydrochloride were added to the rehydration solution (in each case % by weight): 0%, 0.5% 1.0% and 1.5%.
# [2] = tested on: lyophilized control plasma "ACT quality control CoaguChek Pro system level 1"; assay: Activated clotting time (ACT), ACT test cassettes of the CoaguChek Pro system
# Method: Effect of the Prolongation Substances According to the Invention when Added to Control Plasmas to Monitor the Determination of the Activated Clotting Time (ACT)
# The lyophilized control plasma “ACT quality control CoaguChek® Pro system level 1” from Roche Diagnostics was rehydrated with the supplied rehydration solution according to the instructions of the manufacturer. 0%, 0.25%, 0.5% and 0.75% guanidine hydrochloride (in each case % by weight) were added to these solutions.
# [3] = tested on: Citrate plasma that was obtained from rabbits; assay: Prothrombin time test, CoaguChek Pro; prolongation substance added to plasma before lyophilization; settings: lyophilized, rehydrated with distilled water, PT
# Method: Production and Use of the Inventive Control and Calibration Material for the Product CoaguChek® Pro (test for determining the prothrombin time) from Roche Diagnostics
# Effect of the Prolongation Substance when Added to Plasma for the Production of the Control and Calibration Material.
# Citrate plasma that was obtained from rabbits was processed further as follows.
# A portion of the citrate plasma is left untreated and filled in 3.0 ml portions into siliconized vessels and lyophilized. The remainder of the plasma is used to produce preparations to which 2.0%, 3.5% and 5.0% urea (in each case % by weight) is added in each case to the plasma as the prolongation substance. These mixtures are also filled in 3.0 ml portions and lyophilized.
# After rehydration of the individual preparations with distilled water, the samples obtained in this manner are added dropwise to test cards of the CoaguChek® Pro from Roche Diagnostics and the seconds which elapse until the onset of coagulation is determined on the accompanying measuring instrument CoaguChek® Pro.
# [4] = tested on: Commercial control material level 1 for the CoaguChek system; assay: Prothrombin time test, CoaguChek system; prolongation substance in the rehydration solution; settings: PT
# Source text: Effect of the Prolongation Substance when Added to the Rehydration Solution
# […] These solutions are subsequently measured with the CoaguChek® system (test plus measuring instrument).
# [5] = 0.5 % by weight guanidine in the rehydration solution
structure (smiles),measurement,setting,value
CNC(N)=O [N-methyl-urea],time until the onset of coagulation,[1]; 2.0 % by weight N-methyl-urea in the rehydration solution,34.0 s
same,time until the onset of coagulation,[1]; 3.5 % by weight N-methyl-urea in the rehydration solution,38.6 s
same,time until the onset of coagulation,[1]; 5.0 % by weight N-methyl-urea in the rehydration solution,44.0 s
"Cl.N=C(N)N [guanidine, guanidine hydrochloride]",time until the onset of coagulation,[1]; [5],33.1 s
same,time until the onset of coagulation,[1]; 1.0 % by weight guanidine in the rehydration solution,41.9 s
same,time until the onset of coagulation,[1]; 1.5 % by weight guanidine in the rehydration solution,51.8 s
same,time until the onset of coagulation,[2]; 0.25 % by weight guanidine in the rehydration solution,175.6 s
same,time until the onset of coagulation,[2]; [5],223.4 s
same,time until the onset of coagulation,[2]; 0.75 % by weight guanidine in the rehydration solution,305.6 s
NC(N)=O [urea],time until the onset of coagulation,[3]; 2.0 % by weight urea added to rabbit citrate plasma,22.9 s
same,time until the onset of coagulation,[3]; 3.5 % by weight urea added to rabbit citrate plasma,29.6 s
same,time until the onset of coagulation,[3]; 5.0 % by weight urea added to rabbit citrate plasma,41.2 s
same,time until the onset of coagulation,[4]; 2.0 % by weight urea in the rehydration solution,19.3 s
same,time until the onset of coagulation,[4]; 3.0 % by weight urea in the rehydration solution,28.1 s
same,time until the onset of coagulation,[4]; 4.0 % by weight urea in the rehydration solution,32.2 s
same,time until the onset of coagulation,[4]; 5.0 % by weight urea in the rehydration solution,37.8 s
